Data set [1] has as its system COX-2-positive BxPC3 cells. The experiment in a line: Cell uptake of [18F]FMTP in COX-2-positive BxPC3 cells, with blocking. The format is cell-based, human.
The test system of data set [2] is COX-2. The following applies: cited from earlier work.
A further data set deals with xenografts. Particulars: cited from earlier work.
In data set [3] the target is T1, COX-2 (Homo sapiens, UniProt P35354).
T1 sequence (P35354 18-604): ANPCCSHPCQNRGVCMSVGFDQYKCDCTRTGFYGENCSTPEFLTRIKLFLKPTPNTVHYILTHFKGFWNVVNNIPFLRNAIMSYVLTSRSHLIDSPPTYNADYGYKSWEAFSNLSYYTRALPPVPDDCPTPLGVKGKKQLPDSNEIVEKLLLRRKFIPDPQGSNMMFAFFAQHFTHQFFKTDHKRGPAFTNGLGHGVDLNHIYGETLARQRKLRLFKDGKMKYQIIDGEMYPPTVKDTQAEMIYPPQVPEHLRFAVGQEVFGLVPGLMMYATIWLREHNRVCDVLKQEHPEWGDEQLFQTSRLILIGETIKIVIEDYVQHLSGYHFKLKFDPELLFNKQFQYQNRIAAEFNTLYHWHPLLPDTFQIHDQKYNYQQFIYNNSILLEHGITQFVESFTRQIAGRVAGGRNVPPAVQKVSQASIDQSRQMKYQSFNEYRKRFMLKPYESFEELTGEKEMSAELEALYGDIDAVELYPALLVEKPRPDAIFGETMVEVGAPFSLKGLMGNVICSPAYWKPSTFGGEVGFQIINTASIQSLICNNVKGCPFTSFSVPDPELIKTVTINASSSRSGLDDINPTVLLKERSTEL
Particulars: cited from earlier work.

The test system of data set [4] is COX-2-negative PANC-1 cells. The data set can be described thus: Cell uptake of [18F]FMTP in COX-2-negative PANC-1 cells, with blocking. The format is cell-based, human. As for the experimental part:
(§1) The radiochemical synthesis of [^18F]FMTP and [^18F]FMPP were optimized using a chlorine-to-fluorine displacement method, by reacting ^18F-fluoride/K222/K2CO3 with the corresponding chlorine precursor molecules. […] Dynamic microPET image acquisition was performed in anesthetized nude mice, LPS-induced neuroinflammation mice, and PBS-administered control mice using […].
BxPC3 and PANC-1 human pancreas carcinoma cell lines were plated on a 24-well plate at 2×10^5 cells/well. After 48 hours, [^18F]FMTP was added (2.0 μCi/mL) to the cell medium for 30 minutes. […] After incubation with [^18F]FMTP, cells were washed 4 times with cold PBS, lysed with 0.1 N NaOH, and counted in a gamma counter (Hidex AMG, LabLogic, Tampa, Fla.).
Proof-of-concept and selectivity of [^18F]FMTP binding to COX-2 was examined by evaluating the tracer uptake in COX-2-positive BxPC3 and a control COX-2-negative PANC1 human pancreatic carcinoma cell lines. FIG. 2 illustrates a >2-fold uptake of [^18F]FMTP in BxPC3 cells compared with PANC1 cells. Values shown in FIG. 2 are the mean±standard deviation (“SD”) from four independent experiments.

Data set [5] is described as follows: Dynamic microPET imaging of [18F]FMTP in normal mice. The format is in vivo. As for the experimental part:
as §1
Animals (male white mice) were anesthetized with isoflurane (l %-2% isoflurane in 100% oxygen) using a nose cone, and a 29-gauge needle connected to a catheter was placed into the lateral tail vein. For neuroinflammation, mice were stereotactically injected with 5 μg of LPS or PBS (controls) in the brain and imaging experiments conducted 24 hours later. The animal was placed in prone position on the platform of the scanner and moved into the center of the field of view guided by laser beam calibration. Immediately after scan start, [^18F]FMTP (˜2.5 MBq […] in 20% ethanol-saline solution) was injected through the tail-vein catheter manually. The error caused by the injector and catheter was corrected by subtracting the remaining dose. 40-minute dynamic imaging was acquired on a microPET scanner (Siemens Inveon). The acquired list-mode data were reconstructed with 3D ordered subset expectation maximization (OSEM) algorithm using the software of Siemens Inveon Acquisition Workplace with a framing protocol of 2×30 seconds, 4×60 seconds, 3×120 seconds, 3×180 seconds, and 4×300 seconds. Using PMOD software (version 4.0, Switzerland), three-dimensional ellipsoid volume of interests (“VOIs”) ranging from 2-to-6 mm were placed manually at the center of the brain, heart (blood-pool), liver, proximal humerus (bone), and posterior cervical muscle. The standardized uptake values (“SUVs”) were estimated using a calibration factor calculated from the phantom study and time activity curves (“TACs”) were derived from VOIs in the series of reconstructed images.
FIGS. 3A-3D show the summed early frames (0-10 minute) and total frames (0-40 minute) of microPET images. Crosses in FIGS. 3A-3D represent the region with brain. […] TACs also indicated an initial rapid influx of radioactivity followed by rapid washout (FIG. 4). The uptake of [^18F]FMTP peaked around 1 minute in heart and brain, and then decreased rapidly. The absence of retention of [^18F]FMTP activity in these organs was predicted due to low COX-2 expression in normal mouse brain. Highest radioactivity outside the heart was found in liver, and the delay to peak at 5-10 minutes was probably due to the accumulation of radioactive metabolite(s). […] The binding of [^18F]FMTP in LPS-induced neuroinflammation in mice was studied in comparison to vehicle (PBS)-treated-mice. Intracranial injection of LPS in mice is known to generate COX-2 induction and neuroinflammation after around 24 hours. Therefore, PET imaging of LPS treated mice was performed after 24 hours with [^18F]FMTP, and an approximately 2-fold increase of tracer binding was found in brain compared with PBS-treated mice (FIG. 5). […] MicroPET data correlated with autoradiography performed in brain sections of microPET imaged animals using [^18F]FMTP.

For data set [6], the target named is T2, COX-2 (Mus musculus, UniProt Q05769).
T2 construct: from tissue; host or cells: brain of living male white mice, LPS- or PBS-injected
T2 sequence (Q05769 18-604): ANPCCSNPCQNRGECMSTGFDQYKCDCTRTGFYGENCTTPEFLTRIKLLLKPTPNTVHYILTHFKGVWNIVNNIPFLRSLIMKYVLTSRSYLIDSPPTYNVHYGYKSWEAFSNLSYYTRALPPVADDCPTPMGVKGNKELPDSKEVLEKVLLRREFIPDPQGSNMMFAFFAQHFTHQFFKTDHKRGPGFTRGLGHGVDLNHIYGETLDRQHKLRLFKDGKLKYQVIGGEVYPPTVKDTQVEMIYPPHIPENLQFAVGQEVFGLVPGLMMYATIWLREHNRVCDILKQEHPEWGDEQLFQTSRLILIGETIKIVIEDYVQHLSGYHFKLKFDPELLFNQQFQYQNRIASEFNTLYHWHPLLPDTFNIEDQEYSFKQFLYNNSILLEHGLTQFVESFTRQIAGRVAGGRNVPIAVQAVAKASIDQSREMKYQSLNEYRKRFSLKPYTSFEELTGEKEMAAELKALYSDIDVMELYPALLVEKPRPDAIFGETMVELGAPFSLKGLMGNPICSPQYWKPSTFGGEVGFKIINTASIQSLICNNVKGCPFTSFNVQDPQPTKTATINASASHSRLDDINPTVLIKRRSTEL
The data set can be described thus: MicroPET imaging of [18F]FMTP in LPS-induced neuroinflammation mice vs PBS-treated mice. Type of data set: in vivo. The following applies: 24 hours after intracranial 5 μg LPS (FIG. 5). As for the experimental part:
as §1
Animals (male white mice) were anesthetized with isoflurane (l %-2% isoflurane in 100% oxygen) using a nose cone, and a 29-gauge needle connected to a catheter was placed into the lateral tail vein. For neuroinflammation, mice were stereotactically injected with 5 μg of LPS or PBS (controls) in the brain and imaging experiments conducted 24 hours later. […] The standardized uptake values (“SUVs”) were estimated using a calibration factor calculated from the phantom study and time activity curves (“TACs”) were derived from VOIs in the series of reconstructed images.
FIGS. 3A-3D show the summed early frames (0-10 minute) and total frames (0-40 minute) of microPET images. […] TACs also indicated an initial rapid influx of radioactivity followed by rapid washout (FIG. 4). […] Highest radioactivity outside the heart was found in liver, and the delay to peak at 5-10 minutes was probably due to the accumulation of radioactive metabolite(s). […]

Data set [7] relates to COX-2. The following applies: baboon brain; cited from earlier work.

Structures are written as SMILES.

In the case of `CS(=O)(=O)c1ccc(-c2nc(F)cc(NCc3nccs3)n2)cc1` [FMTP], in data set [1] (blocker 5 μM added 30 minutes before [18F]FMTP), the “blocking of [18F]FMTP binding in BxPC3 cells” value is listed as “substantially blocked”.
With `CS(=O)(=O)c1ccc(-c2nc(NCc3cccs3)cc(O[11CH3])n2)cc1` [[^11C]MC1, [^11C]-6-methoxy-2-(4-(methylsulfonyl)phenyl)-N-(thiophen-2-ylmethyl)pyrimidin-4-amine], the “binding to COX-2 in neuroinflammation” value in the data set with COX-2 [2] (animal models of neuroinflammation) is “increased binding to COX-2”. The “detection of constitutive or low level COX-2 in brain” value in the data set with COX-2 [2] (conditions without inflammation) was “failed to detect”.
`CS(=O)(=O)c1ccc(-c2cc(C(F)(F)F)nc(NCc3ccc([18F])cc3)n2)cc1` [[^18F]Pyricoxib]: in the data set with xenografts, the “binding in xenografts in vivo” value is recorded as “only modest binding”. The uptake in brain result with xenografts (in vivo) is on record as “did not show significant uptake in brain”.
Take `COc1cc(NCc2cccs2)nc(-c2ccc(S(C)(=O)=O)cc2)n1` [MC1]: in the data set on COX-2 [2] (cold (non-radiolabeled) MC1), the “specific binding in CNS and periphery organs” value is recorded as “no specific binding”.
Broadly, the IC50 is the point on the concentration scale where inhibition reaches its midpoint. Take `CS(=O)(=O)c1ccc(-c2nc(F)cc(NCc3nccs3)n2)cc1` [[^18F]FMTP, [^18F]-6-fluoro-2-(4-(methylsulfonyl)phenyl)-N-(thiazol-2-ylmethyl)pyrimidin-4-amine]: the IC50 at COX-2 [3] was 2.5 nM.
With `CS(=O)(=O)c1ccc(-c2nc([18F])cc(NCc3nccs3)n2)cc1` [[^18F]FMTP, [^18F]-6-fluoro-2-(4-(methylsulfonyl)phenyl)-N-(thiazol-2-ylmethyl)pyrimidin-4-amine], the “binding to PANC1 cells” value in data set [4] (2.0 μCi/mL, 30 minutes) is listed as “negligible binding”. Further, the “specific binding in PANC1 cells with FMTP or celecoxib block” value in data set [4] (blockers 5 μM) is given as “no specific binding”. Further, the “uptake in spine and skeleton (de[18F]fluorination)” value in data set [5] (microPET) is “did not show uptake in spine and skeleton”. The “washout of activity from brain” value in data set [5] (microPET, 0-40 minute) is given as “fast washout”. For the same compound, in data set [5] (microPET, tail-vein injection), the BBB penetration entry was “penetrated the BBB”. In addition, the “time of peak uptake in heart and brain” value in data set [5] (time activity curves (FIG. 4)) is on record as “around 1 minute”. Moreover, the “time of peak radioactivity in liver” value in data set [5] (time activity curves, delay ascribed to radioactive metabolite(s)) lay in the range of 5 to 10 min. Further, the “increase of tracer binding in brain of LPS-treated compared with PBS-treated mice” value on COX-2 [6] was “approximately 2 fold”. Also, in data set [1] (2.0 μCi/mL, 30 minutes, mean of four independent experiments (FIG. 2)), the “uptake of [18F]FMTP in BxPC3 cells compared with PANC1 cells” value was greater than 2 fold.
For the compound `CS(=O)(=O)c1ccc(-c2noc(C(F)(F)F)c2-c2ccccc2)cc1` [[^11C]TMI, [^11C]-3-(4-methylsulfonylphenyl)-4-phenyl-5-trifluoromethyl isoxazole], the “blocking of constitutive COX-2 level in brain” value in the data set with COX-2 [7] was “partial blocking”.

The values are drawn from patent US20220106275A1, “RADIOLABELED COMPOUNDS AND USES THEREOF” (The Trustees of Columbia University in the City of New York, priority 2019, published 2022).
